The text below walks through data of patent publication US20180327364A1, “MTOR INHIBITORS AND METHODS OF USE THEREOF” (Brandeis University, priority 2015, published 2018).

Holding throughout (assay type): cell-based
The subject of data set [1] is p70s6k phosphorylation (mTORC1). The data set can be described thus: p70s6k phosphorylation immunoblot in HEK-293T cells. As to the method:
(§1) Quantification of western blots was performed with ImageJ. Cells were lysed in RIPA buffer (1% NP-40, 1% NaDeoxycholate, 0.1% SDS, 10 mM TrisCl, 10 mM β-glycerophosphate, 10 mM Na pyrophosphate, 50 mM NaF, 200 μM Na vanadate, 1 mM EDTA, 500 μM EGTA, 1% benzonase, and supplemented with complete (Roche Diagnostics) protease inhibitors).

A further data set concerns eIF2α. The data set can be described thus: eIF2α phosphorylation immunoblot in HEK-293T cells. Conditions: 1 h; tunicamycin 5 μg/mL, thapsigargin 500 nM; compared with vehicle. The method, then: as §1
(A western blot detects proteins with antibodies after separation by electrophoresis.)

Data set [2] concerns K562, BaF3/p210, and HEK-293T cells. The data set can be described thus: LDH release cytotoxicity assay. Conditions: 4 and 48 h. As to the method: (§2) To determine cellular growth, CellTiter-Glo luminescent cell viability assay (Promega) was used per the manufacturer's instruction. To determine cytotoxicity, LDH release was measured with the LDH Cytotoxicity Assay Kit (Pierce) according to the manufacture's protocol. For 4 h assays, 96 well plates were seeded at 75,000 cells/mL for BaF3/p210 cells or K562 cells. For HEK-293T cells, 10,000 cells/well were plated 24 h before treatment. Cells were treated for 4 h at 37° C. and […] was removed from every well and used in the LDH Cytotoxicity assay per the manufacturer's protocol. For 48 h assays, 7,500 cells/mL of BaF3/p210 or K562 cells were incubated with compound at 37° C. for 48 h (200 μL/well). For HEK-293T cells, 1,000 cells/well were plated 24 h prior to compound treatment. After treatment, 50 μL was removed from each well for the LDH assay for all cell lines and 100 μL of mixed cells were removed and used with the CellTiter-Glo kit for K562 and BaF3/p210 cells. For HEK-293T cells, wells were treated directed with the CellTiter-Glo kit. Cytotoxicity or viability was measured by luminosity and absorbance on a microplate reader.
(In general: Release of lactate dehydrogenase indicates damage to the cell membrane.)

Another data set deals with K562 cells. The data set can be described thus: CellTiter-Glo proliferation, K562. Conditions: Homo sapiens, 48 h. The method, then: as §2
Background: In ATP-based viability assays light output follows the ATP content of the culture.

Another data set has as its system NCI-60 cell lines. The data set can be described thus: NCI-60 DTP Human Tumor Cell Line Screen, all cell lines. Conditions: 10 μM, 48 h. As to the method:
Screen was conducted as previously described, performed at Developmental Therapeutics Program NCI/NIH.

In a further data set the test system is BaF3/p210 cells. The data set can be described thus: CellTiter-Glo proliferation, BaF3/p210. Conditions: Mus musculus, 48 h. The method, then: as §2
Data set [3] relates to protein translation in HEK-293T cells. The data set can be described thus: 35S-methionine/cysteine incorporation translation assay. Particulars: Homo sapiens, HEK-293T, 4 h treatment then 1 h labeling. The method, then:
80,000 cells/well of HEK-293T cells were plated into 24 well plates 24 h before the assay. Cells were treated with indicated concentration of compound for 4 h. After 4 h, the media was removed and replaced with DMEM without methionine and cysteine (Lifetechnologies) supplemented with 0.2 mCi/mL EXPRESS [^35S] protein labeling mix (PerkinElmer), 10% dialyzed FBS (Pierce), 1× glutaMax (Gibco), 100 U/mL penicillin 100 μg/mL streptomycin (Gibco), 1 mM sodium pyruvate (Lifetechnologies), and the indicated concentration of compound. After 1 h, this media was removed, cells were washed with ice cold PBS, and lysed with low deoxycholate RIPA buffer (10 mM Tris-Cl, 1% NP-40, 0.5% Na Deoxycholate, 0.1% SDS, 140 mM NaCl, 1 mM EDTA, 500 μM EGTA, 1× Roche Complete protease inhibitors, 1:100 Benzonase, and at pH 8.0). Lysate was centrifuged at maximum speed for 20 m at 4° C. The concentration was measured by Bradford assay. 10 μg of lysate was added to […] ice cold 1 mg/mL BSA with 0.02% Na Azide. 1 mL of ice cold 10% TCA was added, the solutions were mixed and incubated on ice for 0.5 h. These mixtures were vacuum filtered onto GF/C Whatman glass microfiber filters. The filters were washed with 2×5 mL of 10% TCA, then 2×3 mL ethanol. The filters were then dried for a 0.5 h. The filters were placed into scintillation vials with 5 mL of scintillation fluid and read on a scintillation counter.

pEC50: −log10 of the molar value.

Regarding `CC(C)(C)OC(=O)/N=C(\NCCC[C@H](NC(=O)OC(C)(C)C)C(=O)NCCCCCCNC(=O)OCc1ccccc1)NC(=O)OC(C)(C)C` [Cbz-B3A], the “p70s6k Ser371 phosphorylation” value in data set [1] (10 μM, 4 h) is “did not inhibit phosphorylation”. Besides, the pEC50 in data set [1] (Homo sapiens, HEK-293T, 4 h, read-out: EC50 of inhibition of p70s6k Thr389 phosphorylation) is around 5.30; in data set [3] (read-out: EC50 of inhibition of 35S-methionine/cysteine incorporation), around 5.52. The “phosphorylation retained at Thr389 of p70s6k” value in data set [1] (at maximum inhibition) is “approximately 30%”. Besides, the eIF2α phosphorylation result with eIF2α was “no increase in eIF2α phosphorylation”. In data set [2], the “cytotoxicity by release of lactate dehydrogenase” value was “not cytotoxic”. Besides, the inhibition at 10 µM worked out at 52% with K562 cells; 68% in the data set with BaF3/p210 cells; 68% in data set [3] (saturating concentration (Cbz-B3A 10 μM), read-out: maximal inhibition of translation (35S-methionine/cysteine incorporation)). Moreover, the “average decrease in proliferation, all cell lines” value in the data set with NCI-60 cell lines amounted to 29%.
